Assay results published in patent US20260356830A1, “COMPOUNDS FOR MODULATING RET PROTEIN” (Bristol-Myers Squibb Company, priority 2022, published 2026).

Molecular target: T1, CCDC6-RET (Homo sapiens, UniProt P07949+Q16204+Q96SW2)
T1 construct: CCDC6 (natural N-terminal fusion partner, UniProt Q16204); endogenous in cells; host or cells: TPC-1 (parental, papillary thyroid carcinoma)
Experiment: Cellular RET degradation, AlphaLISA, TPC-1 cell line
Type: cell-based
Settings: for Dmax: TPC1, human, 24 h, read-out: Cell Density TPC-1/CCDC6-RET Ymax %; for DC50: read-out: Cell Density TPC-1/CCDC6-RET DC50, half-maximal degradation concentration, TPC-1 (CCDC6-RET), 24 hrs
Method in brief: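 Luminescent AlphaLISA read of RET abundance in lysates after 24 h compound exposure (37 °C, 2% FBS DMEM) of CCDC6-RET-bearing TPC-1 cells. % degradation relative to DMSO (high) and media (low) controls, fitted to 4-parameter logistic curve for DC50 and Ymax.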

T1 sequence (Q16204+P07949 fused): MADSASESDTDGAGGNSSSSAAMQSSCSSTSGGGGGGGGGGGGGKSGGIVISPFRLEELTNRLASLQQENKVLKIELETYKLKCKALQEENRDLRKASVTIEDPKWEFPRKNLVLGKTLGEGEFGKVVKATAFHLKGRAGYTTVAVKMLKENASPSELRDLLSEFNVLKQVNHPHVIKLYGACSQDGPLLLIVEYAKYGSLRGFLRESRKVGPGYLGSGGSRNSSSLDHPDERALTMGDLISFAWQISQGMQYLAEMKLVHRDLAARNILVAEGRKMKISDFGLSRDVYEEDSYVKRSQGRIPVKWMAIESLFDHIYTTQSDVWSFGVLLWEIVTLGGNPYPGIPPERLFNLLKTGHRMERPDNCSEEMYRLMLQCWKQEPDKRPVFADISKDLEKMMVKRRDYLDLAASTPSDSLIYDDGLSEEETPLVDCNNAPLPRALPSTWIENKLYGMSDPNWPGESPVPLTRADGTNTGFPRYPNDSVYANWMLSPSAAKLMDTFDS
T1 sequence (Q96SW2 whole entry, the tested form may be a part): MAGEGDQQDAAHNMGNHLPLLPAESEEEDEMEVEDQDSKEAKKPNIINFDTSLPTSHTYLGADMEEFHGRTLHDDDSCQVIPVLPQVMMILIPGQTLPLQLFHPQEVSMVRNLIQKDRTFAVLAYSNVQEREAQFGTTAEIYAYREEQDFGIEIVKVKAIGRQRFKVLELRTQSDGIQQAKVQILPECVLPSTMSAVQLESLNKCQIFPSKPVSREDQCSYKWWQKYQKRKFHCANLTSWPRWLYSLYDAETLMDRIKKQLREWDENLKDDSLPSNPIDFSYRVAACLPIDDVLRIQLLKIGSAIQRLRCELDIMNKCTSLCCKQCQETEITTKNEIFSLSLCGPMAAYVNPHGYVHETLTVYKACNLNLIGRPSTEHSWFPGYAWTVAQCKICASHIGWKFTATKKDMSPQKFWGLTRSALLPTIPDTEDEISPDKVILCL
T1 sequence (Q16531 whole entry partner, the tested form may be a part): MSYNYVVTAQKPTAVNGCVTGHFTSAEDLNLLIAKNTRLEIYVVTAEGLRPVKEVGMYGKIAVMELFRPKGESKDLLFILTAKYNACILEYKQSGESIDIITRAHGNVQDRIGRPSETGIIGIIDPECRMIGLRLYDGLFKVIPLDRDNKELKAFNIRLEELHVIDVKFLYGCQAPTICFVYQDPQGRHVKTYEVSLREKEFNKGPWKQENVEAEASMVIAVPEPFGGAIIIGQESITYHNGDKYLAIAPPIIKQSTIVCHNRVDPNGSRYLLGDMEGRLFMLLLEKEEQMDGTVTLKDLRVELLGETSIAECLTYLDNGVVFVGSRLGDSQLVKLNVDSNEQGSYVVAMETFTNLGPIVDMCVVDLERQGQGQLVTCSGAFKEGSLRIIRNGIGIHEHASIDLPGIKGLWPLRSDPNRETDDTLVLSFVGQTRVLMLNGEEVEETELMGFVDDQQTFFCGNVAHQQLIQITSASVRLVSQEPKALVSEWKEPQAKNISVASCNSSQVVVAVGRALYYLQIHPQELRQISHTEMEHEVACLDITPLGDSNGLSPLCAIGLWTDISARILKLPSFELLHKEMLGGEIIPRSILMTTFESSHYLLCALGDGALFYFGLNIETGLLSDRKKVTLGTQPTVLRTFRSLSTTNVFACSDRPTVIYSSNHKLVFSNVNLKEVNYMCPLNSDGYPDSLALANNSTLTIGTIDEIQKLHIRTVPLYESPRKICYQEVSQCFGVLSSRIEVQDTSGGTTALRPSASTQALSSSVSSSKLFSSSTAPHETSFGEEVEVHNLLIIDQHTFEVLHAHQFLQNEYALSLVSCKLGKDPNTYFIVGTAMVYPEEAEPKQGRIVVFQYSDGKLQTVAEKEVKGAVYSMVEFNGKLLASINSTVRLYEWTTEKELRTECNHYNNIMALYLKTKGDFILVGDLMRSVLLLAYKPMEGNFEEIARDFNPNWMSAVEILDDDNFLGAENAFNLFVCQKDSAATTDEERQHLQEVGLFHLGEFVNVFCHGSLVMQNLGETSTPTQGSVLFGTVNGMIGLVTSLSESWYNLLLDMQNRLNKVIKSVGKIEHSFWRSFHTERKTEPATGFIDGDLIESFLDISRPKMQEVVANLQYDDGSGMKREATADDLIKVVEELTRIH

| SMILES | Dmax [%] | DC50 [nM] |
| --- | --- | --- |
| CCOc1cc(-c2ccc(N3CCC(CN4CCN(CCOCCC(=O)N5CCN(c6ccc7c(c6)CN(C6CCC(=O)NC6=O)C7=O)CC5)CC4)(NC(=O)c4cc(F)ccc4F)CC3)nc2)c2c(C#N)cnn2c1 (stereo not drawn) [Example 100, N-[1-(5-{3-cyano-6-ethoxypyrazolo[1,5-a]pyridin-4-yl}pyridin-2-yl)-4-({4-[2-(3-{4-[2-(2,6-dioxopiperidin-3-yl)-1-oxo-2,3-dihydro-1H-isoindol-5-yl]piperazin-1-yl}-3-oxopropoxy)ethyl]piperazin-1-yl}methyl)piperidin-4-yl]-2,5-difluorobenzamide] | > 90 | 2 to 10 |
| CCOc1cc(-c2ccc(N3CCC(CN(C(=O)CCCCCCN4CCC(c5ccc6c(c5)C(=O)N(C5CCC(=O)NC5=O)C6)CC4)C(C)C)(NC(=O)c4cc(F)ccc4F)CC3)nc2)c2c(C#N)cnn2c1 (stereo not drawn) [Example 171, N-[1-(5-{3-cyano-6-ethoxypyrazolo[1,5-a]pyridin-4-yl}pyridin-2-yl)-4-[(7-{4-[2-(2,6-dioxopiperidin-3-yl)-3-oxo-2,3-dihydro-1H-isoindol-5-yl]piperidin-1-yl}-N-(propan-2-yl)heptanamido)methyl]piperidin-4-yl]-2,5-difluorobenzamide] | > 90 | 2 to 10 |
| CCOc1cc(-c2ccc(N3CCC(CN4CCN(C(=O)CCN5CC(c6ccc7c(c6)CN(C6CCC(=O)NC6=O)C7=O)C5)CC4)(NC(=O)c4cc(F)ccc4F)CC3)nc2)c2c(C#N)cnn2c1 (stereo not drawn) [Example 119, N-[1-(5-{3-cyano-6-ethoxypyrazolo[1,5-a]pyridin-4-yl}pyridin-2-yl)-4-{[4-(3-{3-[2-(2,6-dioxopiperidin-3-yl)-1-oxo-2,3-dihydro-1H-isoindol-5-yl]azetidin-1-yl}propanoyl)piperazin-1-yl]methyl}piperidin-4-yl]-2,5-difluorobenzamide] | > 90 | 2 to 10 |
| CCOc1cc(-c2ccc(N3CCC(Cc4ccccc4)(NC(=O)N4CCN(C(=O)CCN5CCC(c6ccc7c(c6)C(=O)N(C6CCC(=O)NC6=O)C7)CC5)CC4)CC3)nc2)c2c(C#N)cnn2c1 (stereo not drawn) [Example 51, N-[4-benzyl-1-[5-(3-cyano-6-ethoxy-pyrazolo[1,5-a]pyridin-4-yl)-2-pyridyl]-4-piperidyl]-4-[3-[4-[2-(2,6-dioxo-3-piperidyl)-3-oxo-isoindolin-5-yl]-1-piperidyl]propanoyl]piperazine-1-carboxamide] | 60 to 90 | 10 to 100 |
| CCOc1cc(-c2ccc(N3CCC(NC(=O)c4cc(F)ccc4F)(C(=O)NCCCCCCN4CCC(c5ccc6c(c5)C(=O)N(C5CCC(=O)NC5=O)C6)CC4)CC3)nc2)c2c(C#N)cnn2c1 (stereo not drawn) [Example 163, 1-(5-{3-cyano-6-ethoxypyrazolo[1,5-a]pyridin-4-yl}pyridin-2-yl)-4-(2,5-difluorobenzamido)-N-(6-{4-[2-(2,6-dioxopiperidin-3-yl)-3-oxo-2,3-dihydro-1H-isoindol-5-yl]piperidin-1-yl}hexyl)piperidine-4-carboxamide] | 60 to 90 | 2 to 10 |
| CCOc1cc(-c2ccc(N3CCC(CN4CCN(C(=O)CCCCCCN5CCN(c6ccc7c(c6)CN(C6CCC(=O)NC6=O)C7=O)CC5)CC4)(NC(=O)CC(C)C)CC3)nc2)c2c(C#N)cnn2c1 (stereo not drawn) [Example 3, N-(1-(5-(3-cyano-6-ethoxypyrazolo[1,5-a]pyridin-4-yl)pyridin-2-yl)-4-((4-(7-(4-(2-(2,6-dioxopiperidin-3-yl)-1-oxoisoindolin-5-yl)piperazin-1-yl)heptanoyl)piperazin-1-yl)methyl)piperidin-4-yl)-3-methylbutanamide] | > 90 | 2 to 10 |
| CCOc1cc(-c2ccc(N3CCC(CN4CCN(C(=O)CCCCNC(=O)COc5cccc6c5CN(C5CCC(=O)NC5=O)C6=O)CC4)(NC(=O)c4cc(F)ccc4F)CC3)nc2)c2c(C#N)cnn2c1 (stereo not drawn) [Example 26, N-[1-(5-{3-cyano-6-ethoxypyrazolo[1,5-a]pyridin-4-yl}pyridin-2-yl)-4-({4-[5-(2-{[2-(2,6-dioxopiperidin-3-yl)-1-oxo-2,3-dihydro-1H-isoindol-4-yl]oxy}acetamido)pentanoyl]piperazin-1-yl}methyl)piperidin-4-yl]-2,5-difluorobenzamide] | > 90 | 2 to 10 |

Continued, values first:

| Dmax [%] | DC50 [nM] | SMILES |
| --- | --- | --- |
| > 90 | 2 to 10 | CCOc1cc(-c2ccc(N3CCC(CN(C(=O)CCCCN4CCN(c5ccc6c(c5)C(=O)N(C5CCC(=O)NC5=O)C6)CC4)C(C)C)(NC(=O)c4cc(F)ccc4F)CC3)nc2)c2c(C#N)cnn2c1 (stereo not drawn) [Example 168, N-[1-(5-{3-cyano-6-ethoxypyrazolo[1,5-a]pyridin-4-yl}pyridin-2-yl)-4-[(5-{4-[2-(2,6-dioxopiperidin-3-yl)-3-oxo-2,3-dihydro-1H-isoindol-5-yl]piperazin-1-yl}-N-(propan-2-yl)pentanamido)methyl]piperidin-4-yl]-2,5-difluorobenzamide] |
| > 90 | < 2 | CCOc1cc(-c2ccc(N3CCC(CN4CCN(C(=O)CCCCN5CCN(c6ccc7c(c6)C(=O)N(C6CCC(=O)NC6=O)C7)CC5)CC4)(NC(=O)c4cc(F)ccc4F)CC3)nc2)c2c(C#N)cnn2c1 (stereo not drawn) [Example 13, N-(1-(5-(3-cyano-6-ethoxypyrazolo[1,5-a]pyridin-4-yl)pyridin-2-yl)-4-((4-(5-(4-(2-(2,6-dioxopiperidin-3-yl)-3-oxoisoindolin-5-yl)piperazin-1-yl)pentanoyl)piperazin-1-yl)methyl)piperidin-4-yl)-2,5-difluorobenzamide] |
| 60 to 90 | < 2 | CCOc1cc(-c2ccc(N3CCC(CN4CCN(C(=O)C5CC6(C5)CC(C(=O)N5CCN(c7ccc8c(c7)CN(C7CCC(=O)NC7=O)C8=O)CC5)C6)CC4)(NC(=O)c4cc(F)ccc4F)CC3)nc2)c2c(C#N)cnn2c1 (stereo not drawn) [Example 85, N-[1-(5-{3-cyano-6-ethoxypyrazolo[1,5-a]pyridin-4-yl}pyridin-2-yl)-4-{[4-(6-{4-[2-(2,6-dioxopiperidin-3-yl)-1-oxo-2,3-dihydro-1H-isoindol-5-yl]piperazine-1-carbonyl}spiro[3.3]heptane-2-carbonyl)piperazin-1-yl]methyl}piperidin-4-yl]-2,5-difluorobenzamide] |
| 60 to 90 | < 2 | CCOc1cc(-c2ccc(N3CCC(NC(=O)c4cc(F)ccc4F)(C(=O)NCCN4CCN(c5ccc6c(c5)C(=O)N(C5CCC(=O)NC5=O)C6)CC4)CC3)nc2)c2c(C#N)cnn2c1 (stereo not drawn) [Example 158, 1-(5-{3-cyano-6-ethoxypyrazolo[1,5-a]pyridin-4-yl}pyridin-2-yl)-4-(2,5-difluorobenzamido)-N-(2-{4-[2-(2,6-dioxopiperidin-3-yl)-3-oxo-2,3-dihydro-1H-isoindol-5-yl]piperazin-1-yl}ethyl)piperidine-4-carboxamide] |
| > 90 | < 2 | CCOc1cc(-c2ccc(N3CCC(CN4CCN(C(=O)CCN5CC(Oc6ccc7c(c6)CN(C6CCC(=O)NC6=O)C7=O)C5)CC4)(NC(=O)c4cc(F)ccc4F)CC3)nc2)c2c(C#N)cnn2c1 (stereo not drawn) [Example 120, N-[1-(5-{3-cyano-6-ethoxypyrazolo[1,5-a]pyridin-4-yl}pyridin-2-yl)-4-({4-[3-(3-{[2-(2,6-dioxopiperidin-3-yl)-1-oxo-2,3-dihydro-1H-isoindol-5-yl]oxy}azetidin-1-yl)propanoyl]piperazin-1-yl}methyl)piperidin-4-yl]-2,5-difluorobenzamide] |
